Results published in PMC8007111, “Novel Potent Muscarinic Receptor Antagonists: Investigation on the Nature of Lipophilic Substituents in the 5- and/or 6-Positions of the 1,4-Dioxane Nucleus” (Journal of Medicinal Chemistry, 2020).

What was measured:
hM1 mAChR = target: T1, hM1 mAChR (Homo sapiens, UniProt P11229); assay: [3H]NMS inhibition radioligand binding, hM1 in CHO-K1 cell membranes; conditions: for pKi hM1 / Ki: [3H]NMS, CHO-K1 cell membranes, mean ± S.E.M.; for Ki: read-out: pKi hM1 (converted); for ER (eudismic ratio) hM1: eutomer vs distomer
T1 construct: expressed in transfected cells; host or cells: CHO-K1 (membrane preparation)
T1 sequence (P11229 1-460): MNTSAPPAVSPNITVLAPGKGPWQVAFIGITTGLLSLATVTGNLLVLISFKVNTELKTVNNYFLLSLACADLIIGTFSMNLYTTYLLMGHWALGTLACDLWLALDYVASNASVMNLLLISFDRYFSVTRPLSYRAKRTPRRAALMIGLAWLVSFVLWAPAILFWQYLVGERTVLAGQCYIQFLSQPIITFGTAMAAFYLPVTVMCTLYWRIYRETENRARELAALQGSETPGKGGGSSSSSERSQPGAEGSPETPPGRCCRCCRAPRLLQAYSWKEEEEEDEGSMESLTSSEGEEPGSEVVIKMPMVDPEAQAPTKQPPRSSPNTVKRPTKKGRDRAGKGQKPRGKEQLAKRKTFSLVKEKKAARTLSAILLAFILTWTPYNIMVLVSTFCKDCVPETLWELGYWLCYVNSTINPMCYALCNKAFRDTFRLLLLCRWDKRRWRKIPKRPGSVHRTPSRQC
Protocol: (§1) CHO-K1 cells stably transfected with the human muscarinic receptor subtypes (hM1–5) were grown in Dulbecco’s modified Eagle’s medium (DMEM) with nutrient mixture F12 (DMEM/F12, 50/50), containing 10% fetal bovine serum, penicillin (100 U/mL), streptomycin (100 U/mL), L-glutamine (4 mM), and geneticin (G-418, 50 μg/mL) at 37 °C in a 5% CO2 humidified incubator. […] Serum (0.7 mL) was added to inactivate the trypsin, and the cells were spun down by centrifuging at 300g for 5 min. The cells were then resuspended in ice-cold 25 mM sodium phosphate buffer containing 5 mM MgCl2, pH 7.4 (binding buffer) and homogenized using a cell disrupter (Ultra-Turrax, setting 3, 30 s). The homogenate was sedimented by centrifugation (17,000g, 15 min). The supernatant was discarded, and the resulting membrane pellets were resuspended with Ultra-Turrax in the same buffer to give a final protein concentration of 1–2 mg/mL. The protein content was determined by the method of Bradford (1976) with bovine serum albumin (Sigma) as a standard and stored at −80 °C.
(§2) Inhibition radioligand binding assays were conducted as previously described[48],[49] with 0.2 nM [^3H]NMS in binding buffer in a final volume of 250 μL. Nonspecific binding was defined in the presence of 10 μM atropine. Briefly, membrane fractions (about 25–70 μg/mL of protein) were incubated with radioligand and unlabeled test compounds for 2 h at r.t. Bound and free radioactivity were separated by filtering the assay mixture through UniFilter GF/B plates using a FilterMate Cell Harvester (PerkinElmer Life and Analytical Science). The filter bound radioactivity was counted by a TopCount NXT Microplate Scintillation Counter (PerkinElmer Life and Analytical Science). Data (cpm) were normalized to percentage-specific binding and analyzed using a four-parameter logistic equation in GraphPad Prism 5.02; IC50 values were determined, and Ki values were calculated.[59]

hM2 mAChR = target: T2, hM2 mAChR (Homo sapiens, UniProt P08172); assay: [3H]NMS inhibition radioligand binding, hM2 in CHO-K1 cell membranes; conditions: for pKi hM2 / Ki: [3H]NMS, CHO-K1 cell membranes, mean ± S.E.M.; for Ki: read-out: pKi hM2 (converted); for ER (eudismic ratio) hM2: eutomer vs distomer
T2 construct: expressed in transfected cells; host or cells: CHO-K1 (membrane preparation)
T2 sequence (P08172 1-466): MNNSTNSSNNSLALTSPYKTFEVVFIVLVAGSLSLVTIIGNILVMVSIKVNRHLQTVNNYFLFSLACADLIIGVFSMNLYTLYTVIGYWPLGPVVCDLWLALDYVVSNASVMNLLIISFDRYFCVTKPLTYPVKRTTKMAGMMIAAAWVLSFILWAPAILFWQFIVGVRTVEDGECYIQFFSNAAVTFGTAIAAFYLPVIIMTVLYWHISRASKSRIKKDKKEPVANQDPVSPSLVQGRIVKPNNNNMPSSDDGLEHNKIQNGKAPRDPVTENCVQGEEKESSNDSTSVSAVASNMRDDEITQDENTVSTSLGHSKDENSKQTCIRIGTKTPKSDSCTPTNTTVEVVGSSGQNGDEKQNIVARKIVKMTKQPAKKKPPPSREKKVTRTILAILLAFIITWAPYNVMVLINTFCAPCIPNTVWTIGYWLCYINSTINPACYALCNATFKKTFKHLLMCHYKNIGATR
Protocol: as §1, §2

hM3 mAChR = target: T3, hM3 mAChR (Homo sapiens, UniProt P20309); assay: [3H]NMS inhibition radioligand binding, hM3 in CHO-K1 cell membranes; conditions: for pKi hM3 / Ki: [3H]NMS, CHO-K1 cell membranes, mean ± S.E.M.; for Ki: read-out: pKi hM3 (converted); for ER (eudismic ratio) hM3: eutomer vs distomer
T3 construct: expressed in transfected cells; host or cells: CHO-K1 (membrane preparation)
T3 sequence (P20309 whole entry): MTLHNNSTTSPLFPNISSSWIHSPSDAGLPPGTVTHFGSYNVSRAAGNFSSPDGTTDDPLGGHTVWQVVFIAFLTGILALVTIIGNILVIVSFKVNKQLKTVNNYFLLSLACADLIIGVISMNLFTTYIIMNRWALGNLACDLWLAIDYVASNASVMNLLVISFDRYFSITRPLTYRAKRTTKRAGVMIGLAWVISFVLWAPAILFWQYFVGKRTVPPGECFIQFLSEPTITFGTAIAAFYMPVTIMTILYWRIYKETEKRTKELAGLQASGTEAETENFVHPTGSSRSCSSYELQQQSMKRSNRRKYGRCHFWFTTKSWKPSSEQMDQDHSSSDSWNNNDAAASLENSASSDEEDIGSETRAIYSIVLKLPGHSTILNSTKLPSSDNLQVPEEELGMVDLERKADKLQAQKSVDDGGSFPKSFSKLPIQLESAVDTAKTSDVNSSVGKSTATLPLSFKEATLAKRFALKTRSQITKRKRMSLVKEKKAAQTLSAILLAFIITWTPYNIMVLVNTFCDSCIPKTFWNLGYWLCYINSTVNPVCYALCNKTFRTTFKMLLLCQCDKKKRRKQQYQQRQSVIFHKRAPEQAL
Protocol: as §1, §2

hM4 mAChR = target: T4, hM4 mAChR (Homo sapiens, UniProt P08173); assay: [3H]NMS inhibition radioligand binding, hM4 in CHO-K1 cell membranes; conditions: for pKi hM4 / Ki: [3H]NMS, CHO-K1 cell membranes, mean ± S.E.M.; for Ki: read-out: pKi hM4 (converted); for ER (eudismic ratio) hM4: eutomer vs distomer
T4 construct: expressed in transfected cells; host or cells: CHO-K1 (membrane preparation)
T4 sequence (P08173 1-479): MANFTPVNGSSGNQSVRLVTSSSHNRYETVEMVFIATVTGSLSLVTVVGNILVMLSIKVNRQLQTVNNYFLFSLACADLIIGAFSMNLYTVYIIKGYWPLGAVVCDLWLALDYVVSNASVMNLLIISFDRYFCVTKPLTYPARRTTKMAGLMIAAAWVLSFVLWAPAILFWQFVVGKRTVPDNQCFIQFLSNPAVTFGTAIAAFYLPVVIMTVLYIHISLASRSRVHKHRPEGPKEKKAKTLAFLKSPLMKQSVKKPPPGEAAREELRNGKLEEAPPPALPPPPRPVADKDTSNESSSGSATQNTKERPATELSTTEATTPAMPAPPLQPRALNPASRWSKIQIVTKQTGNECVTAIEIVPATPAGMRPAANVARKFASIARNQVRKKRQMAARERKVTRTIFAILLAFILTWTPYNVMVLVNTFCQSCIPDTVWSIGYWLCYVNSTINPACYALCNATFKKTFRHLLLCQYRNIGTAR
Protocol: as §1, §2

hM5 mAChR = target: T5, hM5 mAChR (Homo sapiens, UniProt P08912); assay: [3H]NMS inhibition radioligand binding, hM5 in CHO-K1 cell membranes; conditions: for pKi hM5 / Ki: [3H]NMS, CHO-K1 cell membranes, mean ± S.E.M.; for Ki: read-out: pKi hM5 (converted)
T5 construct: expressed in transfected cells; host or cells: CHO-K1 (membrane preparation)
T5 sequence (P08912 1-532): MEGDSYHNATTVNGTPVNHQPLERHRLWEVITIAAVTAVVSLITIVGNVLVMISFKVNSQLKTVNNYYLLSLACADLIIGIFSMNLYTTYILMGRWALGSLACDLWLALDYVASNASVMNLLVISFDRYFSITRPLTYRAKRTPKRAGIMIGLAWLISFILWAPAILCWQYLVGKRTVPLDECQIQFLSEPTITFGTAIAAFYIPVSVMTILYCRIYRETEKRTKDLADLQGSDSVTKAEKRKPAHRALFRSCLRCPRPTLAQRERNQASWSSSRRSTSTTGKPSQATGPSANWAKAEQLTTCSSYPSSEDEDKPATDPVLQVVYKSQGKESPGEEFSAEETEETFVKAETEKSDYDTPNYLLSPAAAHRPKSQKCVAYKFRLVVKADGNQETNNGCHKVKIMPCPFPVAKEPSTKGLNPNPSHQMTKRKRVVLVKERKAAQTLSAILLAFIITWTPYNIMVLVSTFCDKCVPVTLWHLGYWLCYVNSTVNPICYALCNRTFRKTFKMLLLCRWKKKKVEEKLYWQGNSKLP
Protocol: as §1, §2

Row | pKi hM1 (hM1 mAChR) | pKi hM2 (hM2 mAChR) | pKi hM3 (hM3 mAChR) | pKi hM4 (hM4 mAChR) | pKi hM5 (hM5 mAChR) | M3/M2 selectivity ratio (hM3 mAChR; from binding affinities at hM3 and hM2) | Ki (hM1 mAChR) [nM] | Ki (hM2 mAChR) [nM] | Ki (hM3 mAChR) [nM] | Ki (hM4 mAChR) [nM] | Ki (hM5 mAChR) [nM] | ER (eudismic ratio) hM5 (hM5 mAChR; eutomer vs distomer) | Compound | ER (eudismic ratio) hM1 (hM1 mAChR) | ER (eudismic ratio) hM2 (hM2 mAChR) | ER (eudismic ratio) hM3 (hM3 mAChR) | ER (eudismic ratio) hM4 (hM4 mAChR)
1 | 8.86 ± 0.16 | 7.88 ± 0.08 | 8.72 ± 0.10 | 8.62 ± 0.12 | 8.62 ± 0.17 | 7.0 |  |  |  |  |  |  | CN(C)C[C@@H]1COC[C@](c2ccccc2)(C2CCCCC2)O1 (relative stereo) [33b, 1-((2R*,6R*)-6-Cyclohexyl-6-phenyl-1,4-dioxan-2-yl)-N,N-dimethylmethanamine] |  |  |  | 
2 |  |  |  |  |  |  | 676 | 4370 | 2000 | 3890 | 3980 |  | C[N+](C)(C)C[C@@H]1COC(c2ccccc2)C(c2ccccc2)(c2ccccc2)O1 (stereo in doubt) [19a, 1-((2R*,5S*)-5,6,6-Triphenyl-1,4-dioxan-2-yl)-N,N,N-trimethylmethanaminium Iodide] |  |  |  | 
3 |  |  |  |  |  |  | 550 | 2140 | 1100 | 1170 | 1450 |  | C[N+](C)(C)C[C@@H]1COC(c2ccccc2)C(c2ccccc2)(c2ccccc2)O1 (stereo in doubt) [19b, 1-((2R*,5R*)-5,6,6-Triphenyl-1,4-dioxan-2-yl)-N,N,N-trimethylmethanaminium Iodide] |  |  |  | 

More lines, now with the values behind:

Row | Compound | pKi hM1 (hM1 mAChR) | pKi hM2 (hM2 mAChR) | pKi hM3 (hM3 mAChR) | pKi hM4 (hM4 mAChR) | pKi hM5 (hM5 mAChR) | M3/M2 selectivity ratio (hM3 mAChR; from binding affinities at hM3 and hM2) | Ki (hM1 mAChR) [nM] | Ki (hM2 mAChR) [nM] | Ki (hM3 mAChR) [nM] | Ki (hM4 mAChR) [nM] | Ki (hM5 mAChR) [nM] | ER (eudismic ratio) hM5 (hM5 mAChR; eutomer vs distomer) | ER (eudismic ratio) hM1 (hM1 mAChR) | ER (eudismic ratio) hM2 (hM2 mAChR) | ER (eudismic ratio) hM3 (hM3 mAChR) | ER (eudismic ratio) hM4 (hM4 mAChR)
4 | C[N+](C)(C)C[C@@H]1CO[C@@H](c2ccccc2)[C@H](c2ccccc2)O1.[I-] (relative stereo) [18a, 1-((2R*,5S*,6S*)-5,6-Diphenyl-1,4-dioxan-2-yl)-N,N,N-trimethylmethanaminium Iodide] | 5.85 ± 0.09 | 5.72 ± 0.09 | 5.33 ± 0.12 | 5.25 ± 0.08 | 5.34 ± 0.07 |  |  |  |  |  |  |  |  |  |  | 
5 | C[N+](C)(C)C[C@@H]1CO[C@H](c2ccccc2)[C@@H](c2ccccc2)O1.[I-] (relative stereo) [18b, 1-((2R*,5R*,6R*)-5,6-Diphenyl-1,4-dioxan-2-yl)-N,N,N-trimethylmethanaminium Iodide] | 6.30 ± 0.09 | 5.65 ± 0.09 | 5.81 ± 0.10 | 5.40 ± 0.09 | 5.52 ± 0.08 |  |  |  |  |  |  |  |  |  |  | 
6 | C[N+](C)(C)C[C@@H]1CO[C@@H](c2ccccc2)[C@@H](c2ccccc2)O1.[I-] (relative stereo) [18c, 1-((2R*,5S*,6R*)-5,6-Diphenyl-1,4-dioxan-2-yl)-N,N,N-trimethylmethanaminium Iodide] | 7.19 ± 0.07 | 6.62 ± 0.08 | 6.45 ± 0.01 | 6.40 ± 0.06 | 6.21 ± 0.01 |  |  |  |  |  |  |  |  |  |  | 
7 | C[N+](C)(C)C[C@@H]1COC[C@](c2ccccc2)(C2CCCCC2)O1 [(2R,6R)-(+)-3b, 1-((2R,6R)-6-Cyclohexyl-6-phenyl-1,4-dioxan-2-yl)-N,N,N-trimethylmethanaminium Iodide] | 8.30 ± 0.25 | 7.86 ± 0.14 | 7.51 ± 0.12 | 7.45 ± 0.11 | 7.68 ± 0.35 |  |  |  |  |  |  |  |  |  |  | 
8 | CN(C)C[C@@H]1COC[C@](c2ccccc2)(C2CCCCC2)O1 [(2R,6R)-(+)-33b] | 7.68 ± 0.16 | 7.17 ± 0.11 | 6.73 ± 0.06 | 7.01 ± 0.08 | 7.16 ± 0.27 |  |  |  |  |  |  |  |  |  |  | 
9 | C[N+](C)(C)C[C@H]1COC[C@@](c2ccccc2)(C2CCCCC2)O1.[I-] [(2S,6S)-(−)-3b, 1-((2S,6S)-6-Cyclohexyl-6-phenyl-1,4-dioxan-2-yl)-N,N,N-trimethylmethanaminium Iodide] | 9.52 ± 0.19 | 8.22 ± 0.10 | 9.05 ± 0.10 | 9.17 ± 0.19 | 9.18 ± 0.18 |  |  |  |  |  |  |  | 17 | 2 | 35 | 52
10 | CN(C)C[C@H]1COC[C@@](c2ccccc2)(C2CCCCC2)O1 [(2S,6S)-(−)-33b] | 9.10 ± 0.28 | 8.10 ± 0.10 | 9.02 ± 0.10 | 9.09 ± 0.15 | 8.83 ± 0.10 |  |  |  |  |  |  | 47 | 26 | 9 | 195 | 120
11 | C[N+](C)(C)CC1COC(c2ccccc2)(c2ccccc2)CO1 (centres unmarked) [compound 10, 1-(5,5-Diphenyl-1,4-dioxan-2-yl)-N,N,N-trimethylmethanaminium Iodide] |  |  |  |  |  |  | 36.3 | 178 | 135 | 155 | 158 |  |  |  |  | 
